Measured values published in ChEMBL document CHEMBL5550221, “Dual 5-HT2A and 5-HT2C Receptor Inverse Agonist That Affords In Vivo Antipsychotic Efficacy with Minimal hERG Inhibition for the Treatment of Dementia-Related Psychosis” (J Med Chem, 2024).
Active and inactive are the calls of the source. No cut-off for these calls is given here.

How the values were obtained:
[1] = in vitro; details: human, liver microsomes
Description: Metabolic stability in human liver microsomes assessed as compound remaining measured after 30 mins

[2] = physchem; details: 1-octanol/phosphate buffer, pH 7.4
[3] = Dissociation constant, pKa of the compound in DMSO solution by capillary electrophoresis; assay type: physicochemical
[4] = in vitro; details: rat, liver microsomes
Description: Metabolic stability in rat liver microsomes assessed as compound remaining measured after 30 mins

[5] = tested on: Rattus norvegicus; experiment: Induction of dialysate dopamine level in male Wistar rat prefrontal cortex at 3 to 10 mg/kg, sc measured upto 120 mins after treatment by microdialysis study; assay type: functional, organism-based; details: dose 3-10 mg/kg
[6] = tested on: Rattus norvegicus; experiment: Induction of dialysate dopamine level in male Wistar rat prefrontal cortex at 30 mg/kg, sc measured upto 120 mins after treatment by microdialysis study; assay type: functional, organism-based
[7] = tested on: Rattus norvegicus; experiment: Antipsychotic efficacy against MK-801-induced locomotor hyperactivity rat model assessed as reduction in locomotor activity at 30 mg/kg, sc pretreated for 45 mins before MK-801 challenge measured after 15 mins; assay type: functional, organism-based; details: time 60.0 min
[8] = tested on: Rattus norvegicus; experiment: Induction of dialysate dopamine level in male Wistar rat prefrontal cortex at 10 mg/kg, sc measured upto 120 mins after treatment by microdialysis study; assay type: functional, organism-based
[9] = tested on: Rattus norvegicus; experiment: In vivo receptor occupancy at 5-HT2A receptor in sc dosed Wistar rat brain in presence of MDL-100907 non-radiolabeled tracer measured pretreated for 45 mins before MDL-100907 challenge measured after 15 mins; assay type: functional, organism-based; details: dose 0.1-30 mg/kg, time 60.0 min
[10] = tested on: Rattus norvegicus; experiment: Induction of dialysate dopamine level in male Wistar rat prefrontal cortex at 3 mg/kg, sc measured upto 120 mins after treatment by microdialysis study; assay type: functional, organism-based

remaining at 0.5 h [1] [%]	logD [2]	pKa [3]	remaining at 0.5 h [4] [%]	SMILES	Activity [5]	Activity [6]	Activity [7]	Activity [8]	Activity [9]	Activity [10]
48	3	8.7	48	CC(C)COc1ccc(CNC(=O)N(Cc2ccc(F)cc2)[C@H]2CCN(C)CC23CC3)cc1	–	–	–	–	–	–
34	4	7.2	27	CC(C)COc1ccc(CNC(=O)N(Cc2ccc(F)cc2)[C@H]2CCN(C)C[C@H]2F)cc1	–	–	–	–	–	–
89	2.8	8.4	90	CC(C)COc1ccc(CNC(=O)N(Cc2ccc(F)cc2)C2CCN(C)CC2)cc1 [PIMAVANSERIN]	–	Active	Active	inactive	Dose-Dependent Effect	inactive
68	2.5	–	64	CC(C)COc1ccc(CNC(=O)N(Cc2ccc(F)cn2)[C@H]2CCN(C)CC23CC3)cc1	–	–	–	–	–	–

The remaining lines, values behind:

SMILES	remaining at 0.5 h [1] [%]	logD [2]	pKa [3]	remaining at 0.5 h [4] [%]	Activity [5]	Activity [6]	Activity [7]	Activity [8]	Activity [9]	Activity [10]
CC(C)COc1ccc(CNC(=O)N(Cc2ccn(C)n2)[C@H]2CCN(C)CC23CC3)cc1	88	1.7	–	47	–	–	–	–	–	–
Cc1cc2c(cc1Cl)N(C(=O)Nc1ccc(Oc3cccnc3C)nc1)CC2	–	–	–	–	Active	–	–	–	–	–
CCCOc1ccc(CNC(=O)N(Cc2ccn(C)n2)C2CCN(C)CC2)cc1	102	1.2	–	92	–	–	–	–	–	–
CC(C)COc1ccc(CNC(=O)N(Cc2ccc(F)cc2)[C@H]2CCN(C)C[C@@H]2F)cc1	7.9	4.9	6.2	6.1	–	–	–	–	–	–
